Measurements as given in patent US20230265151A1, “GIP/GLP1 CO-AGONIST COMPOUNDS” (priority 2020, published 2023).
Where two headings read alike, the source gives them in different places.

What was measured:
hGCGR = target: T1, hGCGR (Homo sapiens, UniProt P47871); test: Functional cAMP formation (HTRF) in HEK-293 clonal cells expressing hGCGR, 0.1% bovine casein, without or with 1.0% human serum albumin; type: cell-based; details: geometric mean, read-out: hGCGR EC50, nM (SEM, n)
T1 construct: expressed in transfected cells
T1 sequence (P47871 26-477): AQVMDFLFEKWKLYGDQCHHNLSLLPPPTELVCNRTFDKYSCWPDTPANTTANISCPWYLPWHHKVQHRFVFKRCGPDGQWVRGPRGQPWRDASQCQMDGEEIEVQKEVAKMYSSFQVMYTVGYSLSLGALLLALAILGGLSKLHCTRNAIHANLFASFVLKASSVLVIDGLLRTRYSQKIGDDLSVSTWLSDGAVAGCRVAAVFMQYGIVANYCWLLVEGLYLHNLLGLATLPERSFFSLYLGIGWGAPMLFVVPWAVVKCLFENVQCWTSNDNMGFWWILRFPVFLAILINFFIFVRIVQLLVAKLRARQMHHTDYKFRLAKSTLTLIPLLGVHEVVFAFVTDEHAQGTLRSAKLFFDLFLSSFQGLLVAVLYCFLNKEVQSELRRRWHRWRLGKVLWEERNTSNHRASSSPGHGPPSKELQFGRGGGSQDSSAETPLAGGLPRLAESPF
Method in brief: (§1)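 Readings of the HTRF 665/620 nm ratio, which falls as cAMP rises, were converted to nM cAMP using a standard curve after 30 min peptide exposure at 37° C.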

hGLP-1R = hGLP-1R (Homo sapiens, UniProt P43220); test: Functional cAMP formation (HTRF) in HEK-293 clonal cells expressing hGLP-1R, 0.1% bovine casein, without or with 1.0% human serum albumin; type: cell-based; set-up: expressed in transfected cells; details: for EC50: geometric mean, read-out: hGLP-1R EC50, nM (SEM, n); for Emax: read-out: hGLP-1R Emax, % ± SEM
Chain of hGLP-1R (P43220 24-463): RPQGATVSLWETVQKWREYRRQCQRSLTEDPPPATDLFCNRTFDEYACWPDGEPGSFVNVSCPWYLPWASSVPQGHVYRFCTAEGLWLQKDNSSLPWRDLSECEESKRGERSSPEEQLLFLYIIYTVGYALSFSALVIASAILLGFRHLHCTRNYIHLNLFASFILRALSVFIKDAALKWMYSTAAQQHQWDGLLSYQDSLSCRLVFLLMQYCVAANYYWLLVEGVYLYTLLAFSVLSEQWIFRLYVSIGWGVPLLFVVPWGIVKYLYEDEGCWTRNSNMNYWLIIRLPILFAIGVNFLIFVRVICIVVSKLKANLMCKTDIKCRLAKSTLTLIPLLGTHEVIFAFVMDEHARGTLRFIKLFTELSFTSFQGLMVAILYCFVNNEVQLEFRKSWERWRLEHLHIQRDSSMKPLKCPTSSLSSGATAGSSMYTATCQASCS
Method in brief: as §1

hGIPR = target: T2, hGIPR (Homo sapiens, UniProt P48546); test: Functional cAMP formation (HTRF) in HEK-293 clonal cells expressing hGIPR, 0.1% bovine casein, without or with 1.0% human serum albumin; type: cell-based; details: for Emax: read-out: hGIPR Emax, % ± SEM; for EC50: geometric mean, read-out: hGIPR EC50, nM (SEM, n)
T2 construct: expressed in transfected cells
T2 sequence (P48546 22-466): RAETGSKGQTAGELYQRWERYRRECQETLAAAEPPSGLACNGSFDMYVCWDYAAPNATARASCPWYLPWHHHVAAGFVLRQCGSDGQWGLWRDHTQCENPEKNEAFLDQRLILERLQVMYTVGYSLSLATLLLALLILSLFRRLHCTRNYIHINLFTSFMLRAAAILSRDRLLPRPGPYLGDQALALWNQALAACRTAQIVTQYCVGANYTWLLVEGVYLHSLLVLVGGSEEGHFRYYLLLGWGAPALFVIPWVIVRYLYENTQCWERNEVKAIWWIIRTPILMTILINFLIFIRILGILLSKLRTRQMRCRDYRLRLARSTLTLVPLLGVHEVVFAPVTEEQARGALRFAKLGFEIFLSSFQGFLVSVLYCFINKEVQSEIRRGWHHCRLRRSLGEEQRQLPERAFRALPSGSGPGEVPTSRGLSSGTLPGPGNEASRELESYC
Method in brief: as §1

[1] = target: T3, human Gcg receptor (hGcgR) (Homo sapiens, UniProt P47871); test: [125I]-Glucagon binding, SPA with membranes of HEK293 cells expressing hGcgR; details: human GcgR; geometric mean (SEM, n); read-out: Binding Affinity Ki, nM (SEM, n) hGCGR
T3 construct: expressed in transfected cells; crude membranes
T3 sequence (P47871 26-477): as the sequence (P47871 26-477) above
Protocol: Two methods are used for the preparation of crude cell membranes.
Method 1: Frozen cell pellets are lysed on ice in hypotonic buffer containing 50 mM Tris HCl, pH 7.5, and Roche Complete™ Protease Inhibitors with EDTA. […] The homogenate is centrifuged at 4° C. at 1100 × g for 10 minutes. The supernatant is collected and stored on ice while the pellets are resuspended in homogenization buffer and rehomogenized as described above. The homogenate is centrifuged at 1100 × g for 10 minutes. The second supernatant is combined with the first supernatant and centrifuged at 35000 × g for 1 hour at 4° C. The resulting membrane pellet is resuspended in homogenization buffer containing protease inhibitors at approximately 1 to 3 mg/mL, quick frozen in liquid nitrogen and stored as aliquots in a -80° C. freezer until use.
The homogenate is centrifuged at 4° C. at 1800 × g for 15 minutes. The supernatant is collected and stored on ice while the pellets are resuspended in homogenization buffer (without DNAse I) and rehomogenized as described above. The homogenate is centrifuged at 1800 × g for 15 minutes. The second supernatant is combined with the first supernatant and centrifuged an additional time at 1800 × g for 15 minutes. The overall supernatant is then centrifuged at 25000 × g for 30 minutes at 4° C. The resulting membrane pellet is resuspended in homogenization buffer (without DNAse I) containing protease inhibitors at approximately 1 to 3 mg/mL and stored as aliquots in a -80° C. freezer until use.
The human Gcg receptor binding assays are performed using a Scintillation Proximity Assay (SPA) format with wheat germ agglutinin (WGA) beads (Perkin Elmer). The binding buffer contains 25 mM 4-(2-hydroxyethyl)-1-piperazineethanesulfonic acid (HEPES), pH 7.4, 2.5 mM CaCl2, 1 mM MgCh, 0.1% (w/v) bacitracin (Research Products), 0.003% (w/v) Polyoxyethylenesorbitan monolaurate (TWEEN®-20), and Roche Complete™ Protease Inhibitors without EDTA. […] Next, 5 µL serially diluted compound or DMSO is transferred into Corning® 3632 clear bottom assay plates containing 45 µL assay binding buffer or unlabeled Gcg control (non-specific binding or NSB, at 1 µM final). […] Plates are sealed and mixed on a plate shaker (setting 6) for 1 minute and read with a PerkinElmer Trilux MicroBeta® scintillation counter after 12 hours of incubation/settling time at room temperature.
Raw CPM data for concentration curves of peptides, Gcg, GLP-1, or GIP are converted to percent inhibition by subtracting nonspecific binding (binding in the presence of excess unlabeled Gcg, GLP-1, or GIP, respectively) from the individual CPM values and dividing by the total binding signal, also corrected by subtracting nonspecific binding. Data are analyzed using four-parameter (curve maximum, curve minimum, IC50, Hill slope) nonlinear regression routines (Genedata Screener, version 12.0.4, Genedata AG, Basal, Switzerland). […] Values for Ki are reported as the geometric mean, with error expressed as the standard error of the mean (SEM) and n is equal to the number of independent replicates (determined in assays performed on different days). Geometric Means are calculated as follows: […]
The Ki Ratio (Ki for native control peptide/Ki for test compound) at each receptor and each species is calculated. The Ki Ratio is a rapid indication of the apparent affinity of a peptide compared to the native control peptide.
n=⅟x means that only one value out of the total number of replicates (x) is used to express the mean. SEM is only calculated when n=2 or greater non-qualified results exist. Means are expressed as GeoMetric means with the standard error of the mean (SEM) and the number of replicates (n) indicated in parenthesis.

[2] = 0.1% bovine casein and 1.0% human serum albumin, 37° C.
[3] = cAMP, incubated at 37° C., 0.1% bovine casein (no human serum albumin)
[4] = HEK293, 0.1% bovine casein and 1.0% human serum albumin, 37° C., percent of maximal response to GIP(1-42)NH2
[5] = HEK293, percent of maximal response to GIP(1-42)NH2, 37° C., 0.1% bovine casein, arithmetic mean

SMILES	EC50 (hGCGR; [2])	EC50 (hGCGR; [3])	EC50 (hGLP-1R; [3])	Emax (hGIPR; [4])	Emax (hGIPR; [5])	EC50 (hGIPR; [3])	Ki [1]	Emax (hGLP-1R; HEK293, 0.1% bovine casein and 1.0% human serum albumin, 37° C., percent of maximal response to GLP-1(7-36)NH2)	Emax (hGLP-1R; HEK293, percent of maximal response to GLP-1(7-36)NH2, 37° C., 0.1% bovine casein, arithmetic mean)	EC50 (hGLP-1R; [2])	EC50 (hGIPR; [2])
CC[C@H](C)[C@H](NC(=O)[C@H](CCCN)NC(=O)[C@H](CC(=O)O)NC(=O)[C@H](CC(C)C)NC(=O)[C@](C)(CC(C)C)NC(=O)[C@@H](NC(=O)C(C)(C)NC(=O)[C@H](Cc1ccncc1)NC(=O)[C@H](CC(=O)O)NC(=O)[C@H](CO)NC(=O)[C@@H](NC(=O)[C@](C)(Cc1ccccc1F)NC(=O)[C@@H](NC(=O)CNC(=O)[C@H](CCC(=O)O)NC(=O)C(C)(C)NC(=O)[C@@H](N)Cc1ccc(O)cc1)[C@@H](C)O)[C@@H](C)O)[C@@H](C)CC)C(=O)N[C@@H](C)C(=O)N[C@@H](CCC(N)=O)C(=O)NC(C)(C)C(=O)N[C@@H](CCC(=O)O)C(=O)N[C@@H](Cc1ccccc1)C(=O)N[C@H](C(=O)N[C@@H](CCCCNC(=O)COCCOCCNC(=O)COCCOCCNC(=O)CC[C@H](NC(=O)CCCCCCCCCCCCC(=O)O)C(=O)O)C(=O)N[C@@](C)(Cc1ccc(O)cc1)C(=O)N[C@@H](CC(C)C)C(=O)N[C@H](C(=O)N[C@@H](CCCCNC(=O)COCCOCCNC(=O)COCCOCCNC(=O)CC[C@H](NC(=O)CCCCCCCCCCCCC(=O)O)C(=O)O)C(=O)NCC(=O)NCC(=O)N1CCC[C@H]1C(=O)N[C@@H](CO)C(=O)N[C@@H](CO)C(=O)NCC(=O)N[C@@H](C)C(=O)N1CCC[C@H]1C(=O)N1CCC[C@H]1C(=O)N1CCC[C@H]1C(=O)N[C@@H](CO)C(N)=O)[C@@H](C)CC)[C@@H](C)CC [Example 219]	> 9950 nM	> 9950 nM	0.376 nM	82.9%	96.7%	0.0227 nM	135 nM				
CC[C@H](C)[C@H](NC(=O)[C@H](CC(C)C)NC(=O)[C@](C)(Cc1ccc(O)cc1)NC(=O)[C@@H](CCC(=O)O)NC(=O)[C@@H](NC(=O)[C@H](Cc1cccc(Cl)c1)NC(=O)[C@H](CCC(=O)O)NC(=O)C(C)(C)NC(=O)[C@H](CCC(N)=O)NC(=O)[C@H](C)NC(=O)[C@H](CCCCNC(=O)COCCOCCNC(=O)COCCOCCNC(=O)CC[C@H](NC(=O)CCCCCCCCCCCCC(=O)O)C(=O)O)NC(=O)[C@H](CCCN)NC(=O)[C@H](CC(=O)O)NC(=O)[C@H](CC(C)C)NC(=O)[C@](C)(CC(C)C)NC(=O)[C@@H](NC(=O)[C@H](CO)NC(=O)[C@H](Cc1ccncc1)NC(=O)[C@H](CC(=O)O)NC(=O)[C@H](CO)NC(=O)[C@@H](NC(=O)[C@](C)(Cc1ccccc1F)NC(=O)[C@@H](NC(=O)CNC(=O)[C@H](CCC(=O)O)NC(=O)C(C)(C)NC(=O)[C@@H](N)Cc1ccc(O)cc1)[C@@H](C)O)[C@@H](C)O)[C@@H](C)CC)[C@@H](C)CC)C(=O)N[C@@H](CCC(=O)O)C(=O)NCC(=O)NCC(=O)N[C@@H](CCCCNC(=O)COCCOCCNC(=O)COCCOCCNC(=O)CC[C@H](NC(=O)CCCCCCCCCCCCC(=O)O)C(=O)O)C(=O)N[C@@H](CO)C(=O)N[C@@H](CO)C(=O)NCC(=O)N[C@@H](C)C(=O)N1CCC[C@H]1C(=O)N1CCC[C@H]1C(=O)N1CCC[C@H]1C(=O)N[C@@H](CO)C(N)=O [Example 62]	> 9950 nM	> 9950 nM		94.3 ± 0.785%	96.1 ± 2.64%	0.0211 nM	> 4780 nM	85.8 ± 3.31%	99.4 ± 5.83%		
CC[C@H](C)[C@H](NC(=O)[C@H](CC(C)C)NC(=O)[C@](C)(Cc1ccc(O)cc1)NC(=O)[C@@H](CCC(=O)O)NC(=O)[C@@H](NC(=O)[C@H](Cc1ccccc1)NC(=O)[C@H](CCC(=O)O)NC(=O)C(C)(C)NC(=O)[C@H](CCC(N)=O)NC(=O)[C@H](C)NC(=O)[C@H](CCCCNC(=O)COCCOCCNC(=O)COCCOCCNC(=O)CC[C@H](NC(=O)CCCCCCCCCCCCC(=O)O)C(=O)O)NC(=O)[C@H](CCCN)NC(=O)[C@H](CC(=O)O)NC(=O)[C@H](CC(C)C)NC(=O)[C@](C)(CC(C)C)NC(=O)[C@@H](NC(=O)[C@H](CO)NC(=O)[C@H](Cc1ccncc1)NC(=O)[C@H](CC(=O)O)NC(=O)[C@H](CO)NC(=O)[C@@H](NC(=O)[C@](C)(Cc1ccccc1F)NC(=O)[C@@H](NC(=O)CNC(=O)[C@H](CCC(=O)O)NC(=O)C(C)(C)NC(=O)[C@@H](N)Cc1ccc(O)cc1)[C@@H](C)O)[C@@H](C)O)[C@@H](C)CC)[C@@H](C)CC)C(=O)N[C@@H](CCC(=O)O)C(=O)NCC(=O)N[C@@H](CCCCNC(=O)COCCOCCNC(=O)COCCOCCNC(=O)CC[C@H](NC(=O)CCCCCCCCCCCCC(=O)O)C(=O)O)C(=O)N1CCC[C@H]1C(=O)N[C@@H](CO)C(=O)N[C@@H](CO)C(=O)NCC(=O)N[C@@H](C)C(=O)N1CCC[C@H]1C(=O)N1CCC[C@H]1C(=O)N1CCC[C@H]1C(=O)N[C@@H](CO)C(N)=O [Example 18]	> 9950 nM	> 9950 nM		86.9 ± 3.59%	97.1 ± 3.28%	0.0226 nM	> 958 nM			164 nM	1.12 nM
